# Test results from patent US12692229B2, “Masp-2 inhibitors and methods of use” (Omeros Corporation, priority 2019, dated 2026).
# Where a name gives a salt, the structure may show the parent alone.
# Target: T1, MASP-2 (CCP1-CCP2-SP) (Homo sapiens, UniProt O00187)
# T1 construct: 15 μL of Enzyme MASP-2 (CCP1-CCP2-SP) in Assay Buffer
# Assay: Enzymatic Assay for MASP-2 (fluorogenic substrate)
# Format: biochemical
# Conditions: room temperature, 20 mM HEPES pH 7.4, 140 mM NaCl, 0.1% Tween 20, 20 min
# Experimental: Enzymatic Assay for MASP-2
# The MASP-2 assay utilizes a fluorogenic substrate, based on the cleavage site for its natural substrate C2. The assay is run at room temperature in an assay buffer containing 20 mM HEPES, pH 7.4, 140 mM NaCl and 0.1% Tween 20. Assay parameters are adjusted such that the assay is linear with respect to time, enzyme, and substrate concentrations. Under these optimized assays conditions, IC50 values are equivalent to Ki values, except in a few cases of “tight binding” inhibitors. Cases of “tight binding” or possible “slow binding” inhibitors are handled by the methods described in Copeland R. A. (2013) Evaluation of Enzyme Inhibitors in Drug Discovery. 2nd Ed., John Wiley and Sons, Inc., Chapters 5-7.
# The MASP-2 assay protocol is carried out as follows. Test compounds are serially diluted in DMSO and then 100 nL of each dilution is transferred to the assay plate(s). 10 μL of Assay Buffer is added, followed by 15 μL of Enzyme MASP-2 (CCP1-CCP2-SP) in Assay Buffer. 15 μL of Substrate in Assay Buffer is then added and mixed to start the reactions. After 20 min at room temperature, 15 μL of a stop solution (0.1 M acetic acid) is added, mixed and the plates are read on a SpectraMax i3× Microplate Reader and exported as Excel files. Each assay plate included a “no inhibitor” (DMSO Only) control, a “no enzyme” control and a reference inhibitor control. % Activity values=100*(average test comp. fluorescence-average “no enzyme” fluorescence)/(average “DMSO only” fluorescence-average “no enzyme” fluorescence). IC50 and Ki values are very reproducible, falling well within ±2-fold.
# T1 sequence (O00187 445-686 limits assumed): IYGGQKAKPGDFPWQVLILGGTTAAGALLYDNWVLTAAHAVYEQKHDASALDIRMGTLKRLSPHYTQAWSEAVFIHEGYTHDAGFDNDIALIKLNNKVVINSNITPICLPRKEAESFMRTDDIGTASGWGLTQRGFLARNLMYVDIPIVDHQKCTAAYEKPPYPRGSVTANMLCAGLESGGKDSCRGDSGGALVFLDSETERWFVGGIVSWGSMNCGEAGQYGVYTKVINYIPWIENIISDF
# T1 sequence (O00187 287-444 partner limits assumed): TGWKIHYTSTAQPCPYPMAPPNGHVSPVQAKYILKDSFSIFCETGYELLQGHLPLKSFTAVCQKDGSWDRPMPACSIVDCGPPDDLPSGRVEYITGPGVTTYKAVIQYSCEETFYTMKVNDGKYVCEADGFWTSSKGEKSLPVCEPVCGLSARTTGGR
row,SMILES,Ki [nM]
1,"COC(=O)[C@@H]1C[C@@H](C(=O)NCc2ccc(C(=N)N)cc2)N(C(=O)[C@H](N)CCc2ccccc2)C1 [Compound I-1, Methyl (3R,5S)-1-((R)-2-amino-4-phenylbutanoyl)-5-((4-carbamimidoylbenzyl)carbamoyl)pyrrolidine-3-carboxylate ditrifluoroacetate]",< 500
2,"COC[C@H]1C[C@@H](C(=O)NCc2ccc(C(=N)N)cc2)N(C(=O)[C@H](N)CCc2ccccc2)C1 [Compound I-2, (2S,4S)-1-((R)-2-amino-4-phenylbutanoyl)-N-(4-carbamimidoylbenzyl)-4-(methoxymethyl)pyrrolidine-2-carboxamide dihydrochloride]",< 500
3,"N=C(N)c1ccc(CNC(=O)[C@@H]2C[C@H](c3ccccc3)CN2C(=O)[C@H](N)CCc2ccccc2)cc1 [Compound I-3, (2S,4R)-1-((R)-2-amino-4-phenylbutanoyl)-N-(4-carbamimidoylbenzyl)-4-phenylpyrrolidine-2-carboxamide dihydrochloride]",< 500
4,"N#C[C@H]1C[C@@H](C(=O)NCc2ccc(C(=N)N)cc2)N(C(=O)[C@H](N)CCc2ccccc2)C1 [Compound I-6, (2S,4S)-1-((R)-2-amino-4-phenylbutanoyl)-N-(4-carbamimidoylbenzyl)-4-cyanopyrrolidine-2-carboxamide ditrifluoroacetate]",< 500
5,"N=C(N)c1ccc(CNC(=O)[C@@H]2C[C@@H](c3ccccc3)CN2C(=O)[C@H](N)CCc2ccccc2)cc1 [Compound I-11, (2S,4S)-1-((R)-2-amino-4-phenylbutanoyl)-N-(4-carbamimidoylbenzyl)-4-phenylpyrrolidine-2-carboxamide dihydrochloride]",< 500
6,"N=C(N)c1ccc(CNC(=O)[C@@H]2CC(n3cccn3)CN2C(=O)[C@H](N)CCc2ccccc2)cc1 (stereo partly drawn) [Compound I-22, Dihydrochloride]",< 500
